From patent US11730712B2, “Functionalized long-chain hydrocarbon mono- and di-carboxylic acids and derivatives thereof, and their use for the prevention or treatment of disease” (ESPERVITA THERAPEUTICS, INC., priority 2021, dated 2023)

How the values were obtained:
[1] = tested on: expanded HSPC / megakaryocytes; assay: Platelet production from expanded HSPC cultured into megakaryocytes; format: cell-based; conditions: added to expanded HSPC at day 0 or day 6, cultured into megakaryocytes for 8 days
Method: Compound I-32 (A) and Compound I-1 (B) were added to expanded HSPC at day 0 (FIGS. 25A-25E) as they were cultured into megakaryocytes for 8 days or at day 6 (FIGS. 25F-25J). CD41a cell count (FIG. 25A), CD41aCd42b+ cell count (FIG. 25B), platelet levels (FIG. 25C), CD41a MFI (FIG. 25D) and CD41a FSC cell size (FIG. 25E) were analyzed at day 0. CD41a cell count (FIG. 25F), CD41aCd42b+ cell count (FIG. 25G), platelet levels (FIG. 25H), CD41a MFI (FIG. 25I) and CD41a FSC cell size (FIG. 25J) were analyzed at day 6.

Hepa1-6 cells = assay: Drug interaction (combination) in Hepa1-6 cell proliferation; format: cell-based
Method: FIGS. 42A-42B show drug interaction effect of Compound I-32 (FIG. 42A) and Compound I-1 (FIG. 42B) in combination with regorafenib in Hepa1-6 cell proliferation. In FIG. 42A, “1+0.05 (μM)” means 1 μM Compound I-32+0.05 μM regorafenib, etc. In FIG. 42B, “1+0.05 (μM)” means 1 μM Compound I-1+0.05 μM regorafenib, etc.
In FIG. 46A, “1+0.05 (μM)” means 1 μM Compound I-1+0.05 μM sorafenib, etc. […] In FIG. 46B, “1+0.3 (μM)” means 1 μM Compound I-1+0.3 μM lenvatinib, etc. […] In FIG. 46C, “1+0.05 (μM)” means 1 μM Compound I-32+0.05 μM sorafenib, etc. […] In FIG. 46D, “1+0.3 (μM)” means 1 μM Compound I-32+0.3 μM lenvatinib, etc.

[2] = tested on: Hep3B human hepatocarcinoma cells; assay: Cell proliferation assay (presto blue, 72 h); format: cell-based; conditions: for Hep3B cell proliferation compared to control, compound alone: 100 μM; for Hep3B cell proliferation compared to control, compound alone / IC50 / inhibition of Hep3B cell proliferation in combination with lenvatinib vs each agent alone / inhibition of Hep3B cell proliferation in combination with regorafenib vs individual effects / inhibition of Hep3B cell proliferation in combination with sorafenib vs each agent alone: 72 h; for IC50: Homo sapiens, Hep3B, read-out: Hep3B (IC50), anti-proliferation activity; for inhibition of Hep3B cell proliferation in combination with lenvatinib vs each agent alone: compound 100 μM + lenvatinib 0.5 μM; for inhibition of Hep3B cell proliferation in combination with regorafenib vs individual effects: compound 100 μM + regorafenib 1.5 μM; for inhibition of Hep3B cell proliferation in combination with sorafenib vs each agent alone: compound 100 μM + sorafenib 3 μM
Method: (§1) Cell cultures. Hep3B (ATCC) and Hepa1-6 (ATCC) cells were seeded in 96-well plates at a density of 3000 cells/well with complete media. On day 2, media in each well was aspirated and replaced with 100 μl of fresh complete media and cells were treated with or without Compound I-1, Compound I-32, Compound I1-84, and Compound I-85, in a concentration dependent manner. Then, cells were incubated in an incubator for 72 h. On day 5, 10 μl of presto blue (Invitrogen, cat #A13261) cell viability reagent was added in each 96-well plate and incubated at 37° C. for 1-2 h. After incubation, fluorescence was measured with an excitation/emission wavelength of 560/590 nm.
(§2) Proliferation assay. Hep3B (ATCC) and Hepa1-6 (ATCC) cells were seeded in 96-well plates at a density of 3000 cells/well with complete media. On day 2, media in each well was aspirated and replaced with 100 μl of fresh complete media and cells were treated with/without testing compounds in a concentration dependent manner. Then, cells were incubated in an incubator for 72 h. On day 5, 10 μl of presto blue (Invitrogen, cat #A13261) cell viability reagent was added in each 96-well plate and incubated at 37° C. for 1-2 h. After incubation, fluorescence was measured with an excitation/emission wavelength of 560/590 nm. Anti-proliferative combination effects of Compound I-1 or Compound I-32 and regorafenib were determined in Hep3B and Hepa1-6 cells. Drug combination interaction was determined by the Chou-Talalay method (23), which is based on well-known equations for different reaction sequences and mechanisms, and different types of inhibition. These equations provide the theoretical basis for the combination index (CI)-isobologram equation that allows quantitative determination of drug interactions, where CI<1, =1, and >1 indicate synergism, additive effect, and antagonism, respectively. CI is calculated based on in vitro measurements implemented in the Compusyn software (www.combosyn.com), a platform for drug combinations pharmacodynamics with automated simulations. The software calculates CI based on the Fractional Inhibition (Fa), which is the potency expressed by the average effect values for each drug concentrations as determined by in vitro experiments. The dose-effect data entries are utilized for automated computerized analysis by the Compusyn software.
(§3) Data entered was obtained by in vitro experiments performed as follows: Hep3B or Hepa 1-6 cells were plated in a 96-well format and cell proliferation rates were determined as described above. Cells were treated with 5 doses of each test agent alone at the following concentrations: compounds of the invention dosed at 1, 5, 10, 50, or 100 μM for both Hep3B and Hepa1-6 cells, regorafenib dosed at 0.015, 0.075, 0.15, 0.75, and 1.5 μM for Hep3B cells or 0.05, 0.25, 0.5, 2.5, 5 μM for Hepa 1-6 cells. […]. Data are shown as Fa-CI plots where CI is the combination index and Fa is fractional inhibition. Results were indicated as mean±standard deviation (SD). All bar diagrams and line graphs were prepared using Graph Pad Prism 8 software. Drug synergy was calculated using the CompuSyn software.
(§4) Methods: Hep3B cells (supplied by ATCC) and Hepa1-6 cells (supplied by ATCC) were seeded in 96-well plates at a density of 3000 cells/well with complete media. On day 2, the media in each well was aspirated and replaced with 100 μL of fresh complete media, and the cells were treated in a concentration dependent manner with either Compound I-1, Compound I-32, Compound I-84, Compound I-85, sorafenib, lenvatinib, Compound I-1 in combination with sorafenib. Compound I-1 in combination with lenvatinib, Compound I-32 in combination with sorafenib, or Compound I-32 in combination with lenvatinib. The cells were then incubated in an incubator at 37° C. for 72 h. On day 5, 10 μL of presto blue (Invitrogen, cat #A13261) cell viability reagent was added to each 96-well plate and incubated at 37° C. for 1-2 h. […]

[3] = tested on: Hepa1-6 murine hepatoma cells; assay: Cell proliferation assay (presto blue, 72 h); format: cell-based, mouse; conditions: for Hepa1-6 cell proliferation compared to control, compound alone: 100 μM; for Hepa1-6 cell proliferation compared to control, compound alone / inhibition of Hepa1-6 cell proliferation in combination with lenvatinib vs each agent alone / inhibition of Hepa 1-6 cell proliferation in combination with regorafenib vs individual effects / inhibition of Hepa1-6 cell proliferation in combination with sorafenib vs each agent alone: 72 h; for IC50: Mus musculus, Hepa1-6, 72 h, read-out: Hepa1-6 (IC50), anti-proliferation activity; for synergism with lenvatinib (CI), Hepa1-6 cells: all tested concentrations: 1 μM and 0.3 μM to 100 μM and 30 μM; for inhibition of Hepa1-6 cell proliferation in combination with lenvatinib vs each agent alone: compound 100 μM + lenvatinib 30 μM; for inhibition of Hepa 1-6 cell proliferation in combination with regorafenib vs individual effects: compound 100 μM + regorafenib 5 μM; for inhibition of Hepa1-6 cell proliferation in combination with sorafenib vs each agent alone: compound 100 μM + sorafenib 5 μM
Method: as §1, §2, §3, §4

SMILES | platelet production [1] | drug interaction effect in combination with lenvatinib (Hepa1-6 cells; at all tested concentrations) | Hep3B cell proliferation compared to control, compound alone [2] | IC50 [2] [µM] | inhibition of Hep3B cell proliferation in combination with lenvatinib vs each agent alone [2] | inhibition of Hep3B cell proliferation in combination with regorafenib vs individual effects [2] | inhibition of Hep3B cell proliferation in combination with sorafenib vs each agent alone [2] | Hepa1-6 cell proliferation compared to control, compound alone [3] | IC50 [3] [µM] | synergism with lenvatinib (CI), Hepa1-6 cells [3] | inhibition of Hepa1-6 cell proliferation in combination with lenvatinib vs each agent alone [3] | inhibition of Hepa 1-6 cell proliferation in combination with regorafenib vs individual effects [3] | inhibition of Hepa1-6 cell proliferation in combination with sorafenib vs each agent alone [3] | other results
CC(C)(CCCCc1cccc(CCCCC(C)(C)C(=O)O)c1)C(=O)O [Compound I-32, 6-[3-(5-carboxy-5-methylhexyl)-phenyl]-2,2-dimethylhexanoic acid] | do not significantly affect | synergism | inhibited Hep3B cell proliferation compared to control | > 100 | significantly greater inhibition of Hep3B cell proliferation | greater inhibition of cell proliferation compared to their individual effects | significantly greater inhibition of Hep3B cell proliferation | inhibited Hepa1-6 cell proliferation compared to control | > 100 | synergism | significantly greater inhibition of Hepa1-6 cell proliferation | greater inhibition of cell proliferation compared to their individual effects | significantly greater inhibition of Hepa1-6 cell proliferation | drug interaction effect in combination with sorafenib (Hepa1-6 cells; at various concentrations): synergism; synergism with sorafenib (CI), Hep3B cells ([2]; all tested concentrations: 1 μM and 0.05 μM, 5 μM and 0.15 μM, 10 μM and 0.3 μM, 50 μM and 1.5 μM, 100 μM and 3 μM): synergism; synergism with lenvatinib (CompuSyn CI), Hep3B cells ([2]; compound 5 μM and lenvatinib 0.025 μM): Modest synergism; synergism with lenvatinib (CompuSyn CI), Hep3B cells ([2]; compound and lenvatinib: 1 μM and 0.005 μM, 10 μM and 0.05 μM, 50 μM and 0.25 μM, 100 μM and 0.5 μM): significant synergism; synergism with sorafenib (CI), Hepa1-6 cells ([3]; compound and sorafenib: 1 μM and 0.05 μM, 10 μM and 0.25 μM, 50 μM and 2.5 μM, 100 μM and 5 μM): significant synergism
CC(C)(CCCCc1ccc(CCCCC(C)(C)C(=O)O)cc1)C(=O)O [Compound I-1, 6-[4-(5-carboxy-5-methylhexyl)-phenyl]-2,2-dimethylhexanoic acid] | do not significantly affect | synergism | inhibited Hep3B cell proliferation compared to control | > 100 | significantly greater inhibition of Hep3B cell proliferation | greater inhibition of cell proliferation compared to their individual effects | significantly greater inhibition of Hep3B cell proliferation | inhibited Hepa1-6 cell proliferation compared to control | > 100 | synergism | significantly greater inhibition of Hepa1-6 cell proliferation | greater inhibition of cell proliferation compared to their individual effects | significantly greater inhibition of Hepa1-6 cell proliferation | drug interaction effect in combination with sorafenib (Hepa1-6 cells; at all tested concentrations): synergism; synergism with sorafenib (CompuSyn CI), Hep3B cells ([2]; compound 5 μM and sorafenib 0.15 μM): Modest synergism; synergism with lenvatinib (CompuSyn CI), Hep3B cells ([2]; compound 10 μM and lenvatinib 0.05 μM): Moderate synergism; synergism with lenvatinib (CompuSyn CI), Hep3B cells ([2]; compound and lenvatinib: 50 μM and 0.25 μM, 100 μM and 0.5 μM): significant synergism; synergism with sorafenib (CompuSyn CI), Hep3B cells ([2]; compound and sorafenib: 1 μM and 0.03 μM, 50 μM and 1.5 μM, 100 μM and 3 μM): significant synergism; synergism with sorafenib (CI), Hepa1-6 cells ([3]; all tested concentrations: 1 μM and 0.05 μM to 100 μM and 5 μM): synergism
